Ends that are not written are not given here.
Tested on: IFNγ-producing T-cells
Assay: IFN-gamma ELISpot on in vitro expanded (IVS) NSCLC patient PBMCs with patient-specific neoantigen peptide pools or individual peptides
Type: cell-based, human
Details: NSCLC patient PBMCs after IVS culture
Procedure: To do so, archival FFPE tumor biopsies and 5-30 ml of peripheral blood were analyzed from 9 patients with metastatic NSCLC undergoing anti-PD(L)1 therapy (Supplementary Table 2: Patient demographics and treatment information for N=9 patients studied in FIGS. 17A-C. Key fields include tumor stage and subtype, anti-PD1 therapy received, and summary of NGS results.). […] The full MS model was applied to prioritize 20 neoepitopes per patient for testing against pre-existing anti-tumor T-cell responses. To focus the analysis on likely CD8 responses, the prioritized peptides were synthesized as 8-11mer minimal epitopes (Methods), and then peripheral blood mononuclear cells (PBMCs) were cultured with the synthesized peptides in short in vitro stimulation (IVS) cultures to expand neoantigen-reactive T-cells (Supplementary Table 3). After two weeks the presence of antigen-specific T-cells was assessed using IFN-gamma ELISpot against the prioritized neoepitopes. In seven patients for whom sufficient PBMCs were available, separate experiments were also performed to fully or partially deconvolve the specific antigens recognized. The results are depicted in FIGS. 17A-C and 18A-21.
FIG. 17A depicts detection of T-cell responses to patient-specific neoantigen peptide pools for nine patients. […]

GTKKDVDVLK
T-cell recognition of individual peptide: recognized by CD8 T-cells

From US11264117B2, “Neoantigen identification using hotspots” (Gritstone bio, Inc., priority 2017, dated 2022)
